The source of these data is ChEMBL document CHEMBL5653615 (J Biol Chem, 2013).

Assay [1] concerns the target T1, Serine/threonine-protein kinase TAO1 (Homo sapiens) (UniProt Q7L7X3).
T1 sequence (whole entry): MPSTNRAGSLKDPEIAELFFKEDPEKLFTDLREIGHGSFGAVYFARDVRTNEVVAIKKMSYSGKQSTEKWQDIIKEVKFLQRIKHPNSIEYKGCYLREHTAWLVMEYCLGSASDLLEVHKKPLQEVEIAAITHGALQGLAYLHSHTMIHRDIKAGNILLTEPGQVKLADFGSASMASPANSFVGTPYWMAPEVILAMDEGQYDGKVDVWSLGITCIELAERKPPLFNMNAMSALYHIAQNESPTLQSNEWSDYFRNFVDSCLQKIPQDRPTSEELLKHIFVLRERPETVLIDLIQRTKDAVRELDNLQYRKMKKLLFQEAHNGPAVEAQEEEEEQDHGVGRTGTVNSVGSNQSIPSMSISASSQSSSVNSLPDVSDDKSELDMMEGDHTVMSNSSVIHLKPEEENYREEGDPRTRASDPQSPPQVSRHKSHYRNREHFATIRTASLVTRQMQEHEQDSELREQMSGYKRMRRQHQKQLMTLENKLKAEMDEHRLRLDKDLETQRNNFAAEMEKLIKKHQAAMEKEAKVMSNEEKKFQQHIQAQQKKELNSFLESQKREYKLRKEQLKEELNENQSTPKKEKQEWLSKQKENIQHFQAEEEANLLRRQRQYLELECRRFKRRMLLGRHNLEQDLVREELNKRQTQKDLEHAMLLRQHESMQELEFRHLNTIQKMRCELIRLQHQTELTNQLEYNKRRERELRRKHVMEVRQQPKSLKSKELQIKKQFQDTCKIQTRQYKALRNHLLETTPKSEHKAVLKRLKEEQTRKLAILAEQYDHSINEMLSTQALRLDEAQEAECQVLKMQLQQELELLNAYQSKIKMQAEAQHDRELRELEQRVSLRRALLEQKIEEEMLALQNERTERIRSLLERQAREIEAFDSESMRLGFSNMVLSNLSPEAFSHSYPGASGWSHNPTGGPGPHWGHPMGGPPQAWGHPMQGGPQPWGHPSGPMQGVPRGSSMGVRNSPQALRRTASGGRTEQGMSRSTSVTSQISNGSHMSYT
The assay can be described thus: Inhibition of human TAOK1 at 18.6 nM by HotSpot assay relative to control.

Assay [2] deals with T2, Ephrin type-B receptor 2 (Homo sapiens) (UniProt P29323).
T2 sequence (whole entry): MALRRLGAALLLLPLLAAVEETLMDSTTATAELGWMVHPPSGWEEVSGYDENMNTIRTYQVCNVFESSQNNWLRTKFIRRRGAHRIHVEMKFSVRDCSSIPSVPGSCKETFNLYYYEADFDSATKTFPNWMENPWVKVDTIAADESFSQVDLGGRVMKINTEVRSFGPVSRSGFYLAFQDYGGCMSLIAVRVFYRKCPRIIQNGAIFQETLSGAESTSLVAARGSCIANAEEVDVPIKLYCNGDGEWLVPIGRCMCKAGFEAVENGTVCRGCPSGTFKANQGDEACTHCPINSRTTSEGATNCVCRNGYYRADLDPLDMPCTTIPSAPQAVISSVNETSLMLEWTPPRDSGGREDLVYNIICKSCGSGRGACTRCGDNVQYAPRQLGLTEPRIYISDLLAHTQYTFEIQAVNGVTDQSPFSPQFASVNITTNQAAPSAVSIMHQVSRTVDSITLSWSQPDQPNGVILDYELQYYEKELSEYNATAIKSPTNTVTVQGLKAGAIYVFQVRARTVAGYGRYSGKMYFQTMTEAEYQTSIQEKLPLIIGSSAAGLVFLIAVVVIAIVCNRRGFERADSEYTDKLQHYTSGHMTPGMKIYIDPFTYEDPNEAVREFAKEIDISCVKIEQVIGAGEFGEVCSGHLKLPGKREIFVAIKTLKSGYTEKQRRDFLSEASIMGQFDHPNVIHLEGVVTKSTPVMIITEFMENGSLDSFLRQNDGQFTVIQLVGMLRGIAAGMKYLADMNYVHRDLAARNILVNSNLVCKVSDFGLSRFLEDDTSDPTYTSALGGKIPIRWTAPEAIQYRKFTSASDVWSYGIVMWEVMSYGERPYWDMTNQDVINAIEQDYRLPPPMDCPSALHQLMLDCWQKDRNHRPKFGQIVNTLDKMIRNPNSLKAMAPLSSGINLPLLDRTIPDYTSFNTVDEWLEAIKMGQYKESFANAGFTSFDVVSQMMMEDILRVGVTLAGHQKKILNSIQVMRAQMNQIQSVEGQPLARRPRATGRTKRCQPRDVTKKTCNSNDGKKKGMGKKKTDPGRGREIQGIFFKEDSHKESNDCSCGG
The assay can be described thus: Inhibition of human EPHB2 at 18.6 nM by HotSpot assay relative to control.

Assay [3] has as its target Serine/threonine-protein kinase WNK2 (Homo sapiens) (UniProt Q9Y3S1). The assay can be described thus: Inhibition of human WNK2 at 18.6 nM by HotSpot assay relative to control.
Assay [4] concerns the target T3, Serine/threonine-protein kinase STK11 (Homo sapiens) (UniProt Q15831).
T3 sequence (whole entry): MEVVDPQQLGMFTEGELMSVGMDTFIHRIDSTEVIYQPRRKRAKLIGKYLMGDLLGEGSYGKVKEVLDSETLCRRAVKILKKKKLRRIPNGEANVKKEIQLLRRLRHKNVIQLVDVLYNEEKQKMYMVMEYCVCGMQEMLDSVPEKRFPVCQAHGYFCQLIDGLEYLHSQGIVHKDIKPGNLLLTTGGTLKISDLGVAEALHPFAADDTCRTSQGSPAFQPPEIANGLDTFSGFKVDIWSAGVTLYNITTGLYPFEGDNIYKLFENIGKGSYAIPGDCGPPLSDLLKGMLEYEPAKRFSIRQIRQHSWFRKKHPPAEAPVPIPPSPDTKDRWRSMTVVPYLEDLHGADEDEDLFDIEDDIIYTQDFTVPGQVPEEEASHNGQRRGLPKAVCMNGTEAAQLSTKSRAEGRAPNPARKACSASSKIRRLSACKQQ
The assay can be described thus: Inhibition of human LKB1 at 18.6 nM by HotSpot assay relative to control.

Assay [5] deals with Serine/threonine-protein kinase N1 (Homo sapiens) (UniProt Q16512). The assay can be described thus: Inhibition of human PRK1 at 1.82 nM by HotSpot assay relative to control.
Chain of Serine/threonine-protein kinase N1 (Homo sapiens) (Q16512 2-942 limits assumed): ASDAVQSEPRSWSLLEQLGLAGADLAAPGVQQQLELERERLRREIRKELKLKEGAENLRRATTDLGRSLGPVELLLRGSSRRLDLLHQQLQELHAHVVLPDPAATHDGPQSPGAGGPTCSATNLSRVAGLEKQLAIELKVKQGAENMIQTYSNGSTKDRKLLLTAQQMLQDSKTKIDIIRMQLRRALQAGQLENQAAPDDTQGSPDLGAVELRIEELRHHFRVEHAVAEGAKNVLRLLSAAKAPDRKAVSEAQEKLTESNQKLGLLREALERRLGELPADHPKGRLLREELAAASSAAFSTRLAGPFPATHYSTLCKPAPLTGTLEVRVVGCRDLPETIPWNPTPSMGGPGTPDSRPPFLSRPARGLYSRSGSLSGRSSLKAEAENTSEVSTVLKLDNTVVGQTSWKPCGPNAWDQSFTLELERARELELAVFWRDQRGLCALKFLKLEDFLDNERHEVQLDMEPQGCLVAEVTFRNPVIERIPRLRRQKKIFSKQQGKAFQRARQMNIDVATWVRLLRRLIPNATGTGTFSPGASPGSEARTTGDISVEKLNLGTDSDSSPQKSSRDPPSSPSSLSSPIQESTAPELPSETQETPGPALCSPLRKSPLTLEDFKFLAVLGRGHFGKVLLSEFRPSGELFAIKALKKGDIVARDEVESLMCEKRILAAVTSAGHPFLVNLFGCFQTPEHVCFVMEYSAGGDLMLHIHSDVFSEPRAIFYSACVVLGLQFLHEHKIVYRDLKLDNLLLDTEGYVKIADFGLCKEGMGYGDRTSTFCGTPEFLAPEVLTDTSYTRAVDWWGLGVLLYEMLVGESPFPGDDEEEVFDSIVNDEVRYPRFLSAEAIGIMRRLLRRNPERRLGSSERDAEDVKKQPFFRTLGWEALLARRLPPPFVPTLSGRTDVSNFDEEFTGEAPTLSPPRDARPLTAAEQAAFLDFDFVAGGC
The target in assay [6] is Mitogen-activated protein kinase 1 (Homo sapiens) (UniProt P28482). The assay can be described thus: Inhibition of human ERK2 at 1.82 nM by HotSpot assay relative to control.
Chain of Mitogen-activated protein kinase 1 (Homo sapiens) (P28482 whole entry): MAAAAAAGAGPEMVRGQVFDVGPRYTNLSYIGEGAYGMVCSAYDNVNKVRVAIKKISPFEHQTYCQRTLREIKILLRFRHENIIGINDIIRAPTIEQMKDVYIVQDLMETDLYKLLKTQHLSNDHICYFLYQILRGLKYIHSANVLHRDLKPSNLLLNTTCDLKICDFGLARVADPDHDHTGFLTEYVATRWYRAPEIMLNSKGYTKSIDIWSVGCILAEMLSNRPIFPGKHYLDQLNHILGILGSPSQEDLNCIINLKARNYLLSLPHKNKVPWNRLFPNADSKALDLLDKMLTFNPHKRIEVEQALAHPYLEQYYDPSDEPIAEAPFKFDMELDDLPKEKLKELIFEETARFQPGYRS
For assay [7], the target named is Serine/threonine-protein kinase pim-2 (Homo sapiens) (UniProt Q9P1W9). The assay can be described thus: Inhibition of human PIM2 at 500 nM by HotSpot assay relative to control.
Chain of Serine/threonine-protein kinase pim-2 (Homo sapiens) (Q9P1W9 whole entry, looked up): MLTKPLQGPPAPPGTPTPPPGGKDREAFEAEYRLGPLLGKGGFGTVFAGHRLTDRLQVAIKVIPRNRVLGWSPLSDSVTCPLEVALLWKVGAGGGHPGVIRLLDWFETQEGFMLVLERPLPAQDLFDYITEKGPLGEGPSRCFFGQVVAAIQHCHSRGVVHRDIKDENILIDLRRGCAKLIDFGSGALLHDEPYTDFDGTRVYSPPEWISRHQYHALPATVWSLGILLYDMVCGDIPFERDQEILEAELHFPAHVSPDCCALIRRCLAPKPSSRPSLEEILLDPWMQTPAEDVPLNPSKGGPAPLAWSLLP
Assay [8] has as its target Protein kinase C beta type (Homo sapiens) (UniProt P05771). The assay can be described thus: Inhibition of human PKCb1 at 500 nM by HotSpot assay relative to control.

The inhibition is the drop in the measured response relative to a control, in per cent.

Molecules are shown by their SMILES.

Chain of Serine/threonine-protein kinase WNK2 (Homo sapiens) (Q9Y3S1 whole entry): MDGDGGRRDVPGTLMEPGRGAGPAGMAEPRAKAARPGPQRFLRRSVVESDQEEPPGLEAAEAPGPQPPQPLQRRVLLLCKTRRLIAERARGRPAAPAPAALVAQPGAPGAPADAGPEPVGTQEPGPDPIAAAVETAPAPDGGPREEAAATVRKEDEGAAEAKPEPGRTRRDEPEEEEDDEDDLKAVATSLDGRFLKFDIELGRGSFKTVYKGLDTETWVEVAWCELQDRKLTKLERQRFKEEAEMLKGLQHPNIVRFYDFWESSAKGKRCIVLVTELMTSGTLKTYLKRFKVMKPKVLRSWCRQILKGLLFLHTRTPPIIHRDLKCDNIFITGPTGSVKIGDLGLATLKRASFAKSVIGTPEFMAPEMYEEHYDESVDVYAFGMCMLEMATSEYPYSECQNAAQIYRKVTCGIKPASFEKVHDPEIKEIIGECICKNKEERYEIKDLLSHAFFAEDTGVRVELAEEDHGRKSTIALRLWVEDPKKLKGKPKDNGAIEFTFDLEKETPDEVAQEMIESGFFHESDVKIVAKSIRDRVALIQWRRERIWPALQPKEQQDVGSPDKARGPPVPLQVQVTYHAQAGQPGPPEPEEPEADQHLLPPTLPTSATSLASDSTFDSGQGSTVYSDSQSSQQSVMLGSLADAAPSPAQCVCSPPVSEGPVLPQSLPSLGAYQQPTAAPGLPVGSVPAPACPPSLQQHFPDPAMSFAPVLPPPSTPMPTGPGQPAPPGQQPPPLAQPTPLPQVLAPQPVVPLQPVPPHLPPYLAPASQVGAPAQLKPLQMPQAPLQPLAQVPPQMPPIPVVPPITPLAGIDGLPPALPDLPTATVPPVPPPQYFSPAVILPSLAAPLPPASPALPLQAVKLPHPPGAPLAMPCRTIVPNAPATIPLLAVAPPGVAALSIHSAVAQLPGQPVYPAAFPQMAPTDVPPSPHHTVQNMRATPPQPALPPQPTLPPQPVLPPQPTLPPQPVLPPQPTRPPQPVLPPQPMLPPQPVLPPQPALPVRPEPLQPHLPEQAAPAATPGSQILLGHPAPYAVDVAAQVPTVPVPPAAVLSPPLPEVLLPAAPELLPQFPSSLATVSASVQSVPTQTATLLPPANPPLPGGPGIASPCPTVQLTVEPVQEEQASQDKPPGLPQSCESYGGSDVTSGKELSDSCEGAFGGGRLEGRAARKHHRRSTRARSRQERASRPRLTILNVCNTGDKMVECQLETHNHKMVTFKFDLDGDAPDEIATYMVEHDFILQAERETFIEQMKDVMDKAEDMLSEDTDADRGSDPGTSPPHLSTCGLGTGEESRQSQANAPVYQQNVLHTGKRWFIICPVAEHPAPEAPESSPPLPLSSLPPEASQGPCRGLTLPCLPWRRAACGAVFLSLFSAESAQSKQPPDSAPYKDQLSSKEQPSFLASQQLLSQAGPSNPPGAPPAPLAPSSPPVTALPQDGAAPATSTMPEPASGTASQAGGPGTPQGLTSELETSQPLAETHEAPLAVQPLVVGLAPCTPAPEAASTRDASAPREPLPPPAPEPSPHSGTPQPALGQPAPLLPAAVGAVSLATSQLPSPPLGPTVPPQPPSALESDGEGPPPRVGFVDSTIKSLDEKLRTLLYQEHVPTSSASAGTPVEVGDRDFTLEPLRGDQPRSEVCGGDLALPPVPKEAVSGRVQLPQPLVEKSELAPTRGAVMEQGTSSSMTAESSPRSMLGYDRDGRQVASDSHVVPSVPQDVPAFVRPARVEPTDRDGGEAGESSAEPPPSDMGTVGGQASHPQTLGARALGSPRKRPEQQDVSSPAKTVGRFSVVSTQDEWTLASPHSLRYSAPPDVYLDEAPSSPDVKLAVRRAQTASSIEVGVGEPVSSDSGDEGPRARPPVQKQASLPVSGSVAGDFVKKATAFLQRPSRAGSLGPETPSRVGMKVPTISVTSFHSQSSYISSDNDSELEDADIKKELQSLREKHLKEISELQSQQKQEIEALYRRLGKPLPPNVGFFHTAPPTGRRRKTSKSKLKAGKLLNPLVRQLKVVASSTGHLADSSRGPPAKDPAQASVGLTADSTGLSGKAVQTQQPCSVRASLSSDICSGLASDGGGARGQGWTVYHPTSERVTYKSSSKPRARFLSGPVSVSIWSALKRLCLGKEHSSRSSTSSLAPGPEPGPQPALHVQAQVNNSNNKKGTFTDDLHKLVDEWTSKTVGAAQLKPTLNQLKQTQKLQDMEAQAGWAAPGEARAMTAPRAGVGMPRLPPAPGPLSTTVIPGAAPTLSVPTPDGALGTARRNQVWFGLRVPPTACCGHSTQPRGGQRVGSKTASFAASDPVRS
Chain of Protein kinase C beta type (Homo sapiens) (P05771 2-671 limits assumed): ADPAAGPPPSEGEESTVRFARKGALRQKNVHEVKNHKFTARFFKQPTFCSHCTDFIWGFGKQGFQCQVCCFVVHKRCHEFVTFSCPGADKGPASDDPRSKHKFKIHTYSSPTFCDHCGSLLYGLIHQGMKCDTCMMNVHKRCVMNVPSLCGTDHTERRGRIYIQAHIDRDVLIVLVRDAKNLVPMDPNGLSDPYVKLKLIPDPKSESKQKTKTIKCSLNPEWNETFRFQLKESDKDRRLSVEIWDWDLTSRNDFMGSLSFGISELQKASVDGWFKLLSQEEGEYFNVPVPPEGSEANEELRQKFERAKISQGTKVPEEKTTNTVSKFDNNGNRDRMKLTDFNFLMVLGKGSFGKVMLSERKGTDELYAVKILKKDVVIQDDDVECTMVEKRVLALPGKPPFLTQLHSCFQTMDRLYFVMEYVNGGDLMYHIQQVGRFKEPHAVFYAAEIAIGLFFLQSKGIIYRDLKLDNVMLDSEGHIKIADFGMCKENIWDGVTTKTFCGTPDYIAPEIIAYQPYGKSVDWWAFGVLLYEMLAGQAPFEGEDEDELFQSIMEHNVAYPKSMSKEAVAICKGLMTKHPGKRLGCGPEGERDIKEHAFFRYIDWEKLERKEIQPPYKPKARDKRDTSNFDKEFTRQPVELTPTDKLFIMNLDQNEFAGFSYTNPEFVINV

As to `C[C@]1(O)C[C@@H](c2nc(-c3ccc4ccc(-c5ccccc5)nc4c3)c3c(N)nccn32)C1`, the inhibition in assay [1] is 0.77%; in assay [2], -7.65%; in assay [3] it was -2.52%; in assay [4] it was 2.28%.
Consider `C[C@@]1(C(=O)Nc2ccc(F)nc2)CCCN1c1nc(Nc2cc(C3CC3)n[nH]2)c2cccn2n1`, for which the results for the inhibition in assay [5] and in assay [6] were -8.35% and -3.61%, respectively.
On to `Nc1n[nH]c2nnc(-c3c(-c4ccccc4)nn4ccccc34)cc12`, for which the inhibition is 8.35% in assay [7] and 3.54% in assay [8].
